Experimental data as given in article PMC8963254, “Effects of Lysine N-ζ-Methylation in Ultrashort Tetrabasic Lipopeptides (UTBLPs) on the Potentiation of Rifampicin, Novobiocin, and Niclosamide in Gram-Negative Bacteria” (Antibiotics, 2022).
Values after ≈ are worked out from the molar mass of the structure shown. Read-outs that look alike come from different tables or passages of the source.

Tests used:
A. baumannii ATCC 17978 = type: cell-based, Acinetobacter baumannii; details: ATCC 17978, 18 h
Experimental: (§1) The in vitro antibacterial activity of the UTBLPs was assessed against wild-type and clinically isolated bacterial strains. To obtain the MIC of the compounds, the microbroth dilution susceptibility assay was performed according to the Clinical and Laboratory Standards Institute (CLSI, Wayne, PA, USA) guidelines and as previously described. Briefly, the compounds at varying concentrations were incubated with bacterial inoculum (5 × 10^5 CFU/mL final concentration) at 37 °C for 18 h. Growth in the form of turbidity was confirmed using an EMax Plus microplate reader (Molecular Devices, San Jose, CA, USA) at 590 nm.

E. faecalis ATCC 29212 [1] = type: cell-based, Enterococcus faecalis; details: ATCC 29212, 18 h
Experimental: as §1

[2] = system: P. aeruginosa PA259-96196; experiment: microbe, parasite or virus in culture; type: cell-based, Pseudomonas aeruginosa; details: PA259-96196, 18 h
Summary of the method: (§2)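 Turbidity at 590 nm defined growth, from which the MIC was taken. Cultures at a final density of 5 × 10^5 CFU/mL were exposed to a range of compound levels at 37 °C for 18 h in a CLSI-based microdilution format.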

[3] = system: P. aeruginosa PA262-101856; experiment: microbe, parasite or virus in culture; type: cell-based, Pseudomonas aeruginosa; details: PA262-101856, 18 h
Summary of the method: as §2

S. aureus ATCC 29213 = type: cell-based, Staphylococcus aureus; details: ATCC 29213, 18 h
Experimental: as §1

MRSA ATCC 33592 = type: cell-based, Staphylococcus aureus; details: ATCC 33592, 18 h
Experimental: as §1

E. coli ATCC 25922 = type: cell-based, Escherichia coli; details: ATCC 25922, 18 h
Experimental: as §1

E. coli 94474 [4] = experiment: microbe, parasite or virus in culture; type: cell-based, Escherichia coli; details: 94474, 18 h
Summary of the method: as §2

E. coli 94393 = experiment: microbe, parasite or virus in culture; type: cell-based, Escherichia coli; details: 94393, 18 h
Summary of the method: as §2

MRSE 61589 [5] = type: cell-based, Staphylococcus epidermidis
Summary of the method: (§3)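 Values derive from a two-agent checkerboard with an 18 h, 37 °C incubation. FICI cut-offs: ≤0.5 synergy, 0.5–4 additive, >4 antagonism.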

MSSE 81388 [6] = type: cell-based, Staphylococcus epidermidis
Summary of the method: as §3

[7] = system: P. aeruginosa PA259-96196; type: cell-based, Pseudomonas aeruginosa; details: for MICUTBLP: UTBLP alone
Summary of the method: as §3

P. aeruginosa PAO1 [8] = type: cell-based, Pseudomonas aeruginosa; details: for MICUTBLP: UTBLP alone
Summary of the method: as §3

[9] = system: P. aeruginosa PA262-101856; type: cell-based, Pseudomonas aeruginosa; details: for MICUTBLP: UTBLP alone
Summary of the method: as §3

MRSE 61589 [10] = type: cell-based, Staphylococcus epidermidis; details: 61589, 18 h
Experimental: as §1

MSSE 81388 [11] = type: cell-based, Staphylococcus epidermidis; details: 18 h
Experimental: as §1

E. cloacae 118564 = type: cell-based, Enterobacter cloacae; details: for MICUTBLP: UTBLP alone
Summary of the method: as §3

E. coli 94474 [12] = type: cell-based, Escherichia coli; details: for MICUTBLP: UTBLP alone
Summary of the method: as §3

P. aeruginosa PAO1 [13] = type: cell-based, Pseudomonas aeruginosa; details: PAO1, 18 h
Experimental: as §1

A. baumannii AB027 = experiment: microbe, parasite or virus in culture; type: cell-based, Acinetobacter baumannii; details: AB027, 18 h
Summary of the method: as §2

A. baumannii AB92247 = experiment: microbe, parasite or virus in culture; type: cell-based, Acinetobacter baumannii; details: AB92247, 18 h
Summary of the method: as §2

E. faecalis ATCC 29212 [14] = type: cell-based, Enterococcus faecalis
Summary of the method: as §3

[15] = UTBLP alone, plate with chloramphenicol
[16] = UTBLP in combination with chloramphenicol
[17] = chloramphenicol in combination with the UTBLP
[18] = UTBLP in combination with novobiocin
[19] = UTBLP in combination with rifampicin
[20] = novobiocin in combination with the UTBLP
[21] = rifampicin in combination with the UTBLP

MIC (A. baumannii ATCC 17978): >128 µg/mL | MIC (E. faecalis ATCC 29212 [1]): >128 µg/mL | MIC [2]: > 128 µg/mL | MIC [3]: > 128 µg/mL | MIC (S. aureus ATCC 29213): 128 µg/mL (≈ 148 µM) | MIC (MRSA ATCC 33592): >128 µg/mL | MIC (E. coli ATCC 25922): >128 µg/mL | MIC (E. coli 94474 [4]): > 128 µg/mL | MIC (E. coli 94393): > 128 µg/mL | MICUTBLP (MRSE 61589 [5]; [15]): 64 µg/mL | MICUTBLP [MICcombo] (MRSE 61589 [5]; [16]): 0.25 µg/mL | MICchloramphenicol [MICcombo] (MRSE 61589 [5]; [17]): 16 µg/mL | MICUTBLP (MSSE 81388 [6]; [15]): 64 µg/mL | MICUTBLP [MICcombo] (MSSE 81388 [6]; [16]): 0.25 µg/mL | MICchloramphenicol [MICcombo] (MSSE 81388 [6]; [17]): 8 µg/mL | MICUTBLP ([7]; plate with novobiocin): > 128 µg/mL | MICUTBLP ([7]; plate with rifampicin): > 128 µg/mL | MICUTBLP [MICcombo] [7, 18]: 16 µg/mL | MICUTBLP [MICcombo] [7, 19]: 16 µg/mL | MICantibiotic [MICcombo] [7, 20]: 512 µg/mL | MICantibiotic [MICcombo] [7, 21]: 4 µg/mL | MICUTBLP (P. aeruginosa PAO1 [8]; plate with chloramphenicol): > 128 µg/mL | MICUTBLP (P. aeruginosa PAO1 [8]; plate with niclosamide): > 128 µg/mL | MICUTBLP (P. aeruginosa PAO1 [8]; plate with novobiocin): > 128 µg/mL | MICUTBLP (P. aeruginosa PAO1 [8]; plate with rifampicin): > 128 µg/mL | MICUTBLP [MICcombo] (P. aeruginosa PAO1 [8]; [16]): 8 µg/mL | MICUTBLP [MICcombo] (P. aeruginosa PAO1 [8]; UTBLP in combination with niclosamide): 0.25 µg/mL | MICUTBLP [MICcombo] (P. aeruginosa PAO1 [8]; [18]): 16 µg/mL | MICUTBLP [MICcombo] (P. aeruginosa PAO1 [8]; [19]): 8 µg/mL | MICantibiotic [MICcombo] (P. aeruginosa PAO1 [8]; [17]): 8 µg/mL | MICantibiotic [MICcombo] (P. aeruginosa PAO1 [8]; niclosamide in combination with the UTBLP): 1024 µg/mL | MICantibiotic [MICcombo] (P. aeruginosa PAO1 [8]; [20]): 256 µg/mL | MICantibiotic [MICcombo] (P. aeruginosa PAO1 [8]; [21]): 8 µg/mL | MICUTBLP ([9]; plate with novobiocin): > 128 µg/mL | MICUTBLP ([9]; plate with rifampicin): > 128 µg/mL | MICUTBLP [MICcombo] [9, 18]: 16 µg/mL | MICUTBLP [MICcombo] [9, 19]: 0.25 µg/mL | MICantibiotic [MICcombo] [9, 20]: 512 µg/mL | MICantibiotic [MICcombo] [9, 21]: 512 µg/mL | MIC (MRSE 61589 [10]): 64 µg/mL (≈ 73.8 µM) | MIC (MSSE 81388 [11]): 64 µg/mL (≈ 73.8 µM) | MICUTBLP (E. cloacae 118564; plate with novobiocin): > 128 µg/mL | MICUTBLP (E. cloacae 118564; plate with rifampicin): > 128 µg/mL | MICUTBLP [MICcombo] (E. cloacae 118564; [18]): 16 µg/mL | MICUTBLP [MICcombo] (E. cloacae 118564; [19]): 16 µg/mL | MICantibiotic [MICcombo] (E. cloacae 118564; [20]): 8 µg/mL | MICUTBLP (E. coli 94474 [12]; plate with novobiocin): > 128 µg/mL | MICUTBLP (E. coli 94474 [12]; plate with rifampicin): > 128 µg/mL | MICUTBLP [MICcombo] (E. coli 94474 [12]; [18]): 16 µg/mL | MICUTBLP [MICcombo] (E. coli 94474 [12]; [19]): 16 µg/mL | MICantibiotic [MICcombo] (E. coli 94474 [12]; [20]): 4 µg/mL | MICantibiotic [MICcombo] (E. coli 94474 [12]; [21]): 0.5 µg/mL | MIC (P. aeruginosa PAO1 [13]): >128 µg/mL | MIC (A. baumannii AB027): > 128 µg/mL | MIC (A. baumannii AB92247): > 128 µg/mL | MICUTBLP (E. faecalis ATCC 29212 [14]; [15]): > 128 µg/mL | MICUTBLP [MICcombo] (E. faecalis ATCC 29212 [14]; [16]): 0.25 µg/mL | MICchloramphenicol [MICcombo] (E. faecalis ATCC 29212 [14]; [17]): 8 µg/mL
SMILES: CCCCCCCC(=O)N[C@@H](CCCCNC)C(=O)NCCCN(CCCNC(=O)[C@H](CCCCNC)NC(=O)CCCCCCC)CC(=O)N[C@@H](CCCCNC)C(N)=O [UTBLP 2]
Interpretation (MRSE 61589 [5]; UTBLP + chloramphenicol): Additive (0.5 < x ≤ 4 is additive) | Interpretation (MSSE 81388 [6]; UTBLP + chloramphenicol): Additive (0.5 < x ≤ 4 is additive) | Interpretation ([7]; UTBLP + novobiocin): Synergy (FICI ≤ 0.5 is synergistic) | Interpretation ([7]; UTBLP + rifampicin): Synergy (FICI ≤ 0.5 is synergistic) | Interpretation (P. aeruginosa PAO1 [8]; UTBLP + chloramphenicol): Synergy (FICI ≤ 0.5 is synergistic) | Interpretation (P. aeruginosa PAO1 [8]; UTBLP + niclosamide): Additive (0.5 < x ≤ 4 is additive) | Interpretation (P. aeruginosa PAO1 [8]; UTBLP + novobiocin): Synergy (FICI ≤ 0.5 is synergistic) | Interpretation (P. aeruginosa PAO1 [8]; UTBLP + rifampicin): Additive (0.5 < x ≤ 4 is additive) | Interpretation ([9]; UTBLP + novobiocin): Additive (0.5 < x ≤ 4 is additive) | Interpretation ([9]; UTBLP + rifampicin): Additive (0.5 < x ≤ 4 is additive) | Interpretation (E. cloacae 118564; UTBLP + novobiocin): Synergy (FICI ≤ 0.5 is synergistic) | Interpretation (E. cloacae 118564; UTBLP + rifampicin): Synergy (FICI ≤ 0.5 is synergistic) | Interpretation (E. coli 94474 [12]; UTBLP + novobiocin): Synergy (FICI ≤ 0.5 is synergistic) | Interpretation (E. coli 94474 [12]; UTBLP + rifampicin): Synergy (FICI ≤ 0.5 is synergistic) | Interpretation (E. faecalis ATCC 29212 [14]; UTBLP + chloramphenicol): Additive (0.5 < x ≤ 4 is additive)
